Each structure is given as a SMILES string.

The target of assay [1] is T1, human mAChR M1 (Homo sapiens, UniProt P11229).
T1 sequence (P11229 1-460): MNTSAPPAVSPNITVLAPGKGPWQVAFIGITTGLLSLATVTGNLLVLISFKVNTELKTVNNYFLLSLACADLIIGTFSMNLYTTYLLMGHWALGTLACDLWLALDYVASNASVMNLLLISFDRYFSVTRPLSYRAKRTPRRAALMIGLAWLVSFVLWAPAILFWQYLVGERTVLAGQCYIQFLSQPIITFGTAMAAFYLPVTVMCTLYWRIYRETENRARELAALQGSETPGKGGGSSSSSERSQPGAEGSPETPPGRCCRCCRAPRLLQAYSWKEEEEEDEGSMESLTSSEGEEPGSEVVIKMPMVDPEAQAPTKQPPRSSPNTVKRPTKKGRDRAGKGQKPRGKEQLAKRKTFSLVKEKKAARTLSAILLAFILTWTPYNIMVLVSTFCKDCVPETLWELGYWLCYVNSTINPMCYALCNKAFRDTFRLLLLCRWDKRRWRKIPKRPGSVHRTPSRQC
Kind of assay: mAChR M1 cell-based functional assay (calcium mobilization), agonist mode: compound alone, Emax relative to acetylcholine maximum. Particulars: for EC50 / Agonist Activity Human M1 EC50: human mAChR M1; for Emax: relative to the maximum for acetylcholine; call rule not given here. In outline: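 CHO-K1 cells stably expressing hM1 were loaded with Fluo-4 AM, and calcium flux was read as fluorescence ratio. Compound was added alone from an 11-point 1:3 curve, and the agonist response was fitted with a four-parameter logistic. Emax is expressed relative to the acetylcholine maximum.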
(In general: Calcium assays in cells follow changes in intracellular calcium, usually with a dye or a luminescent sensor.)

Assay [2] deals with T1, human mAChR M1. In words: mAChR M1 cell-based functional assay (calcium mobilization), PAM mode: increase in the EC20 acetylcholine response. In outline:
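CHO-K1 cells stably expressing hM1, Fluo-4 loaded, read by FDSS calcium flux at 1 Hz. Compound (11-point 1:3 CRC) added at 4 s, EC20 acetylcholine at 144 s, EC80 at 230 s. PAM activity taken as concentration-dependent increase in EC20 ACh response, fitted by four-parameter logistic for EC50/Emax.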

`[2H]C1([2H])c2ncccc2C(=O)N1Cc1c(C)cc(-c2ccc(C(F)(F)F)c3nn(C)cc23)cc1F` [Compound 200, 6-(2-fluoro-6-methyl-4-(2-methyl-7-(trifluoromethyl)-2H-indazol-4-yl)benzyl)-6,7-dihydro-5H-pyrrolo[3,4-b]pyridin-5-one-7,7-d2]: the 50% effective concentration (EC50) (as a rule, the concentration that produces a half-maximal response) at human mAChR M1 [1] was ≥ 10000 nM; on human mAChR M1 [2], 768 nM. For the same molecule, the Emax – broadly, the greatest response seen or fitted, relative to the assay's reference – turned out to be 15% at human mAChR M1 [1] and 83% on human mAChR M1 [2].

For the molecule `[2H]C1([2H])c2ncccc2C(=O)N1Cc1c(C)cc(-c2ccnc3nn(C)cc23)cc1F` [Compound 201, 6-(2-fluoro-6-methyl-4-(2-methyl-2H-pyrazolo[3,4-b]pyridin-4-yl)benzyl)-6,7-dihydro-5H-pyrrolo[3,4-b]pyridin-5-one-7,7-d2], the half-maximal effective concentration (EC50) is 5200 nM at human mAChR M1 [1] and 332 nM at human mAChR M1 [2]. For the same molecule, the maximal response (Emax) at human mAChR M1 [1] stood at 43%; on human mAChR M1 [2] it was 83%.

Take `[2H]C1([2H])c2ncccc2C(=O)N1Cc1c(F)cc(-c2ccc(OC3CC3)c3nn(C)cc23)cc1C1CC1` [Compound 202, 6-(4-(7-cyclopropoxy-2-methyl-2H-indazol-4-yl)-2-cyclopropyl-6-fluorobenzyl)-6,7-dihydro-5H-pyrrolo[3,4-b]pyridin-5-one-7,7-d2]: on human mAChR M1 [1], the concentration giving a half-maximal response (EC50) is 3240 nM and the Emax was found to be 44%. Besides, at human mAChR M1 [2], the EC50 was found to be 429 nM and the Emax amounted to 81%.

`[2H]C1([2H])c2ncccc2C(=O)N1Cc1c(F)cc(-c2ccc(OCCOC)c3nn(C)cc23)cc1C1CC1` [Compound 203, 6-(2-cyclopropyl-6-fluoro-4-(7-(2-methoxyethoxy)-2-methyl-2H-indazol-4-yl)benzyl)-6,7-dihydro-5H-pyrrolo[3,4-b]pyridin-5-one-7,7-d2]: at human mAChR M1 [1], the EC50 is 2560 nM and the Emax was determined as 63%. Also, on human mAChR M1 [2], the EC50 stood at 815 nM and the maximum response (Emax) was 75%.

Turning to `[2H]C1([2H])c2ncccc2C(=O)N1Cc1c(F)cc(-c2ccc(C)c3nn(C)cc23)cc1C1CC1` [Compound 204, 6-(2-cyclopropyl-4-(2,7-dimethyl-2H-indazol-4-yl)-6-fluorobenzyl)-6,7-dihydro-5H-pyrrolo[3,4-b]pyridin-5-one-7,7-d2], on human mAChR M1 [1], the EC50 turned out to be 7450 nM and the maximal effect (Emax) was 49%. On human mAChR M1 [2], the EC50 is 293 nM and the Emax was found to be 70%.

For `[2H]C1([2H])c2ncccc2C(=O)N1Cc1c(F)cc(-c2ccc(F)c3nn(C)cc23)cc1C1CC1` [Compound 205, 6-(2-cyclopropyl-6-fluoro-4-(7-fluoro-2-methyl-2H-indazol-4-yl)benzyl)-6,7-dihydro-5H-pyrrolo[3,4-b]pyridin-5-one-7,7-d2], at human mAChR M1 [1], the half-maximal effective concentration (EC50) worked out at 5980 nM and the maximum response (Emax) was determined as 54%. Besides, on human mAChR M1 [2], the EC50 is 248 nM and the Emax was 86%.

As to `[2H]C1([2H])c2ncccc2C(=O)N1Cc1c(F)cc(-c2ccc(Cl)c3nn(C)cc23)cc1C1CC1` [Compound 206, 6-(4-(7-chloro-2-methyl-2H-indazol-4-yl)-2-cyclopropyl-6-fluorobenzyl)-6,7-dihydro-5H-pyrrolo[3,4-b]pyridin-5-one-7,7-d2], on human mAChR M1 [1], the 50% effective concentration (EC50) amounted to 9700 nM and the Emax was 38%. Moreover, on human mAChR M1 [2], the EC50 turned out to be 335 nM and the Emax worked out at 81%.

For the molecule `[2H]C1([2H])c2ncccc2C(=O)N1Cc1c(F)cc(-c2ccc(C(F)(F)F)c3nn(C)cc23)cc1C1CC1` [Compound 207, 6-(2-cyclopropyl-6-fluoro-4-(2-methyl-7-(trifluoromethyl)-2H-indazol-4-yl)benzyl)-6,7-dihydro-5H-pyrrolo[3,4-b]pyridin-5-one-7,7-d2], on human mAChR M1 [1], the concentration giving a half-maximal response (EC50) stood at 8070 nM and the maximum response (Emax) stood at 25%. At human mAChR M1 [2], the concentration for a half-maximal effect (EC50) turned out to be 673 nM and the Emax worked out at 84%.

As for `[2H]C1([2H])c2ncccc2C(=O)N1Cc1c(F)cc(-c2ccnc3nn(C)cc23)cc1C1CC1` [Compound 208, 6-(2-cyclopropyl-6-fluoro-4-(2-methyl-2H-pyrazolo[3,4-b]pyridin-4-yl)benzyl)-6,7-dihydro-5H-pyrrolo[3,4-b]pyridin-5-one-7,7-d2], on human mAChR M1 [1], the 50% effective concentration (EC50) stood at 1200 nM and the Emax worked out at 59%. For the same molecule, at human mAChR M1 [2], the EC50 was found to be 140 nM and the Emax was determined as 88%.

With `[2H]C1([2H])c2ncccc2C(=O)N1Cc1c(F)cc(-c2ccc(OC)c3nn(C([2H])([2H])[2H])cc23)cc1C1CC1` [Compound 209, 6-(2-cyclopropyl-6-fluoro-4-(7-methoxy-2-(methyl-d3)-2H-indazol-4-yl)benzyl)-6,7-dihydro-5H-pyrrolo[3,4-b]pyridin-5-one-7,7-d2], at human mAChR M1 [1], the EC50 was 2580 nM and the maximum response (Emax) came to 62%. Moreover, on human mAChR M1 [2], the concentration giving a half-maximal response (EC50) is 769 nM and the maximum response (Emax) was 83%.

For `[2H]C1([2H])c2ncccc2C(=O)N1Cc1c(F)cc(-c2cccc3nn(C)cc23)cc1OCC(C)C` [Compound 210, 6-(2-fluoro-6-isobutoxy-4-(2-methyl-2H-indazol-4-yl)benzyl)-6,7-dihydro-5H-pyrrolo[3,4-b]pyridin-5-one-7,7-d2], at human mAChR M1 [1], the “Agonist Activity Human M1 EC50” value is recorded as “Inactive” and the Emax was determined as 14%. On human mAChR M1 [2], the EC50 turned out to be 865 nM and the maximal response (Emax) is 83%.

Consider `[2H]C1([2H])c2ncccc2C(=O)N1Cc1c(F)cc(-c2ccc3nn(C)cc3c2)cc1OCC(C)C` [Compound 211, 6-(2-fluoro-6-isobutoxy-4-(2-methyl-2H-indazol-5-yl)benzyl)-6,7-dihydro-5H-pyrrolo[3,4-b]pyridin-5-one-7,7-d2], for which, on human mAChR M1 [1], the “Agonist Activity Human M1 EC50” value is reported as “Inactive” and the Emax came to 3%. Further, on human mAChR M1 [2], the EC50 was 1290 nM and the maximum response (Emax) worked out at 88%.

Regarding `[2H]C1([2H])c2ncccc2C(=O)N1Cc1c(F)cc(-c2ccc(OC3CC3)c3nn(C)cc23)cc1OCC(C)C` [Compound 212, 6-(4-(7-cyclopropoxy-2-methyl-2H-indazol-4-yl)-2-fluoro-6-isobutoxybenzyl)-6,7-dihydro-5H-pyrrolo[3,4-b]pyridin-5-one-7,7-d2], on human mAChR M1 [1], the “Agonist Activity Human M1 EC50” value is reported as “Inactive” and the Emax was 2%. In addition, at human mAChR M1 [2], the 50% effective concentration (EC50) stood at 1450 nM and the Emax was 82%.

With `[2H]C1([2H])c2ncccc2C(=O)N1Cc1c(F)cc(-c2ccc(C)c3nn(C)cc23)cc1OCC(C)C` [Compound 213, 6-(4-(2,7-dimethyl-2H-indazol-4-yl)-2-fluoro-6-isobutoxybenzyl)-6,7-dihydro-5H-pyrrolo[3,4-b]pyridin-5-one-7,7-d2], on human mAChR M1 [1], the “Agonist Activity Human M1 EC50” value is on record as “Inactive” and the Emax worked out at 3%. Besides, on human mAChR M1 [2], the EC50 amounted to 1520 nM and the maximal response (Emax) stood at 81%.

As to `[2H]C1([2H])c2ncccc2C(=O)N1Cc1c(F)cc(-c2ccc(F)c3nn(C)cc23)cc1OCC(C)C` [Compound 214, 6-(2-fluoro-4-(7-fluoro-2-methyl-2H-indazol-4-yl)-6-isobutoxybenzyl)-6,7-dihydro-5H-pyrrolo[3,4-b]pyridin-5-one-7,7-d2], at human mAChR M1 [1], the “Agonist Activity Human M1 EC50” value is listed as “Inactive” and the maximum response (Emax) was found to be 2%. Moreover, at human mAChR M1 [2], the EC50 was found to be 1290 nM and the maximum response (Emax) was found to be 79%.

Regarding `[2H]C1([2H])c2ncccc2C(=O)N1Cc1c(F)cc(-c2ccc(Cl)c3nn(C)cc23)cc1OCC(C)C` [Compound 215, 6-(4-(7-chloro-2-methyl-2H-indazol-4-yl)-2-fluoro-6-isobutoxybenzyl)-6,7-dihydro-5H-pyrrolo[3,4-b]pyridin-5-one-7,7-d2], on human mAChR M1 [1], the “Agonist Activity Human M1 EC50” value is on record as “Inactive” and the maximal response (Emax) worked out at 2%. On human mAChR M1 [2], the EC50 stood at 2380 nM and the Emax worked out at 83%.

In the case of `[2H]C1([2H])c2ncccc2C(=O)N1Cc1c(F)cc(-c2ccc(C(F)(F)F)c3nn(C)cc23)cc1OCC(C)C` [Compound 216, 6-(2-fluoro-6-isobutoxy-4-(2-methyl-7-(trifluoromethyl)-2H-indazol-4-yl)benzyl)-6,7-dihydro-5H-pyrrolo[3,4-b]pyridin-5-one-7,7-d2], on human mAChR M1 [1], the “Agonist Activity Human M1 EC50” value is recorded as “Inactive” and the Emax is 2%. On human mAChR M1 [2], the EC50 was 3180 nM and the maximum response (Emax) came out at 83%.

Regarding `[2H]C1([2H])c2ncccc2C(=O)N1Cc1c(F)cc(-c2ccnc3nn(C)cc23)cc1OCC(C)C` [Compound 217, 6-(2-fluoro-6-isobutoxy-4-(2-methyl-2H-pyrazolo[3,4-b]pyridin-4-yl)benzyl)-6,7-dihydro-5H-pyrrolo[3,4-b]pyridin-5-one-7,7-d2], on human mAChR M1 [1], the EC50 came to 2860 nM and the Emax stood at 23%. On human mAChR M1 [2], the EC50 worked out at 207 nM and the Emax was 78%.

`[2H]C1([2H])c2ncccc2C(=O)N1Cc1c(F)cc(-c2ccc(OCCOC)c3nn(C)cc23)cc1OCC(C)C` [Compound 218, 6-(2-fluoro-6-isobutoxy-4-(7-(2-methoxyethoxy)-2-methyl-2H-indazol-4-yl)benzyl)-6,7-dihydro-5H-pyrrolo[3,4-b]pyridin-5-one-7,7-d2]: on human mAChR M1 [1], the EC50 is 7760 nM and the Emax worked out at 25%. At human mAChR M1 [2], the EC50 came to 516 nM and the maximal effect (Emax) stood at 79%.

The values are drawn from US20240228489A1, “POSITIVE ALLOSTERIC MODULATORS OF THE MUSCARINIC ACETYLCHOLINE RECEPTOR M1” (Vanderbilt University, priority 2021, published 2024).
